Data reported in patent publication EP4722201A1, “3-PHENYLISOXAZOLINE-5-CARBOXAMIDE COMPOUND, AND PREPARATION METHOD THEREFOR, HERBICIDAL COMPOSITION THEREOF AND USE THEREOF” (Jiangsu Flag Chemical Industry Co., Ltd, priority 2023, dated 2024).

How the values were obtained:
Assay in all cases: Indoor herbicide activity determination, Seed Treatment; pre-emergence (soil spray)
Assay type in all cases: in vivo
Aegilops tauschii = conditions: 120 g a.i./ha, read-out: Herbicidal activities (inhibition rate) Aegilops tauschii
Text: (§1) The testing method for herbicide activity of the compound of the present invention was as follows:
(§2) Seed Treatment; pre-emergence: quantitative seeds of gramineous weeds (Echinochloa crusgalli, Eleusine indica, Digitaria sanguinalis, Alopecurus japonicus, Beckmannia syzigachne, Leptochloa chinensis, Polypogon fugax, Alopecurus aequalis, Lolium multiflorum, Poa annua, Aegilops tauschii, Avena fatua, Alopecurus myosuroides, Alopecurus japonicus and Alopecurus aequalis), broad-leaved weeds (Eclipta prostrata, Amaranthus retroflexus, Rorippa indica, Malachium aquaticum, Veronica polita, Conyza canadensis, Sesbania cannabina, Sagittariatrifolia and Schoenoplectiella juncoides), and Cyperus iria were sown in plastic pots having a diameter of 7 cm and holes at the bottom and filled with nutrient soil (sandy soil, pH 6.1, organic matter 1%) respectively, the seeds were covered with an appropriate amount of soil after being sown, then the soil was wetted with water from the bottom, the seeds were cultured in a constant-temperature illuminated culture room for 24 h, and the soil was sprayed by using a 3WP-2000 traveling spray tower produced by the Nanjing Institute of Agricultural Mechanization of the Ministry of Agriculture, where a rotational speed of a main shaft was 96 mm/r, a spray height was 300 mm, an effective spraying range of a nozzle was 350 mm, a spray area was 0.35 m^2, and a flow rate at the nozzle was 390 mL/min.
(§3) Post-emergence: an appropriate quantity of seeds of gramineous weeds (Echinochloa crusgalli, Eleusine indica, Digitaria sanguinalis, Alopecurus japonicus, Beckmannia syzigachne, Leptochloa chinensis, Polypogon fugax, Alopecurus aequalis, Lolium multiflorum, Poa annua, Aegilops tauschii, Avena fatua, Alopecurus myosuroides, Alopecurus japonicus and Alopecurus aequalis), broad-leaved weeds (Eclipta prostrata, Amaranthus retroflexus, Rorippa indica, Malachium aquaticum, Veronica polita, Conyza canadensis, Sesbania cannabina, Sagittariatrifolia and Schoenoplectiella juncoides), and Cyperus iria were sown in plastic pots having a diameter of 7 cm and holes at the bottom and filled with nutrient soil (sandy soil, pH 6.1, organic matter 1%) respectively, the seeds were covered with an appropriate amount of soil after being sown, then the soil was wetted with water from the bottom, the seeds were cultured in a constant-temperature illuminated culture room until a 2-4 leaf stage, and stems and leaves underwent spray treatment. After the treatment, the test materials were placed in a laboratory and cultured in the constant-temperature illuminated culture room after the liquid was naturally dry in the shade, and results were determined 21 days later. Inhibition rate of fresh weight % = (1−(fresh weight of treated plants)/(fresh weight of control plants)) × 100% [formula]

Alopecurus japonicus = system: Alopecurus japonicus
Text: as §1, §2, §3

Alopecurus myosuroides = system: Alopecurus myosuroides
Text: as §1, §2, §3

Cyperus iria = conditions: read-out: Herbicidal activities (inhibition rate) Cyperus iria; for inhibition at 120 g/ha: 120 g a.i./ha; for inhibition at 60 g/ha: 60 g a.i./ha
Text: as §1, §2, §3

Eleusine indica = system: Eleusine indica
Text: as §1, §2, §3

Leptochloa chinensis = system: Leptochloa chinensis
Text: as §1, §2, §3

Lolium multiflorum = system: Lolium multiflorum
Text: as §1, §2, §3

Eclipta prostrata = conditions: 60 g a.i./ha, read-out: Herbicidal activities (inhibition rate) Eclipta prostrata
Text: as §1, §2, §3

SMILES | inhibition at 60 g/ha (Cyperus iria) | inhibition at 60 g/ha (Eclipta prostrata) | Herbicidal activities, Eleusine indica (inhibition rate class) (Eleusine indica; Dosage 120 g a.i./ha) | Herbicidal activities, Leptochloa chinensis (inhibition rate class) (Leptochloa chinensis; Dosage 120 g a.i./ha) | Herbicidal activity (inhibition rate class), Eleusine indica (Eleusine indica; Dosage 120 g a.i./ha) | Herbicidal activity (inhibition rate class), Leptochloa chinensis (Leptochloa chinensis; Dosage 120 g a.i./ha) | other results
C=CC1(C(=O)N[C@H]2C[C@@H](C(=O)OCCSC)C2)CC(c2cc(F)cc(F)c2)=NO1 (mixture of isomers) [I-8] |  |  |  |  |  |  | inhibition at 120 g/ha (Aegilops tauschii): 80 to 100%; Herbicidal activities, Alopecurus japonicus (inhibition rate class) (Alopecurus japonicus; Dosage 240 g a.i./ha): A (A indicates that the inhibition rate was greater than or equal to 80% to 100%); Herbicidal activities, Alopecurus myosuroides (inhibition rate class) (Alopecurus myosuroides; Dosage 240 g a.i./ha): A (A indicates that the inhibition rate was greater than or equal to 80% to 100%); inhibition at 120 g/ha (Cyperus iria): 80 to 100%; Herbicidal activities, Eleusine indica (inhibition rate class) (Eleusine indica; Dosage 240 g a.i./ha): A (A indicates that the inhibition rate was greater than or equal to 80% to 100%); Herbicidal activities, Leptochloa chinensis (inhibition rate class) (Leptochloa chinensis; Dosage 240 g a.i./ha): A (A indicates that the inhibition rate was greater than or equal to 80% to 100%); Herbicidal activities, Lolium multiflorum (inhibition rate class) (Lolium multiflorum; Dosage 240 g a.i./ha): A (A indicates that the inhibition rate was greater than or equal to 80% to 100%)
O=C(N[C@H]1C[C@@H](C(=O)OC2CCCC2)C1)[C@@]1(C(F)(F)F)CC(c2cc(F)cc(OC(F)(F)F)c2)=NO1 [I-253] | 80 to 100% | 60 to 80% | A (A indicates that the inhibition rate was greater than or equal to 80% to 100%) | A (A indicates that the inhibition rate was greater than or equal to 80% to 100%) |  |  | Herbicidal activities, Alopecurus japonicus (inhibition rate class) (Alopecurus japonicus; Dosage 120 g a.i./ha): A (A indicates that the inhibition rate was greater than or equal to 80% to 100%); Herbicidal activities, Alopecurus myosuroides (inhibition rate class) (Alopecurus myosuroides; Dosage 120 g a.i./ha): A (A indicates that the inhibition rate was greater than or equal to 80% to 100%)
O=C(N[C@H]1C[C@@H](C(=O)OCC(F)(F)C(F)(F)F)C1)[C@@]1(C(F)(F)F)CC(c2cc(F)cc(OC(F)(F)F)c2)=NO1 [I-254] | 80 to 100% | 80 to 100% | A (A indicates that the inhibition rate was greater than or equal to 80% to 100%) | A (A indicates that the inhibition rate was greater than or equal to 80% to 100%) |  |  | Herbicidal activities, Alopecurus japonicus (inhibition rate class) (Alopecurus japonicus; Dosage 120 g a.i./ha): A (A indicates that the inhibition rate was greater than or equal to 80% to 100%); Herbicidal activities, Alopecurus myosuroides (inhibition rate class) (Alopecurus myosuroides; Dosage 120 g a.i./ha): A (A indicates that the inhibition rate was greater than or equal to 80% to 100%)
C=C[C@]1(C(=O)N[C@H]2C=C[C@@H](C(=O)OCCCCCCC)C2)CC(c2cc(F)cc(C(F)(F)F)c2)=NO1 [I-431] | 80 to 100% | 80 to 100% | A (A indicates that the inhibition rate was greater than or equal to 80% to 100%) | A (A indicates that the inhibition rate was greater than or equal to 80% to 100%) |  |  | Herbicidal activities, Alopecurus japonicus (inhibition rate class) (Alopecurus japonicus; Dosage 120 g a.i./ha): A (A indicates that the inhibition rate was greater than or equal to 80% to 100%); Herbicidal activities, Alopecurus myosuroides (inhibition rate class) (Alopecurus myosuroides; Dosage 120 g a.i./ha): A (A indicates that the inhibition rate was greater than or equal to 80% to 100%); Herbicidal activities, Lolium multiflorum (inhibition rate class) (Lolium multiflorum; Dosage 120 g a.i./ha): A (A indicates that the inhibition rate was greater than or equal to 80% to 100%)
C=C[C@]1(C(=O)N[C@H]2C=C[C@@H](C(=O)OCc3ccccc3)C2)CC(c2cc(F)cc(C(F)(F)F)c2)=NO1 [I-439] | 80 to 100% | 80 to 100% | A (A indicates that the inhibition rate was greater than or equal to 80% to 100%) | A (A indicates that the inhibition rate was greater than or equal to 80% to 100%) |  |  | 
C=CC(C)OC(=O)[C@@H]1C=C[C@H](NC(=O)[C@@]2(C=C)CC(c3cc(F)cc(C(F)(F)F)c3)=NO2)C1 (stereo partly shown) [I-444] | 80 to 100% | 80 to 100% | A (A indicates that the inhibition rate was greater than or equal to 80% to 100%) | A (A indicates that the inhibition rate was greater than or equal to 80% to 100%) |  |  | 
C=C[C@]1(C(=O)N[C@H]2C=C[C@@H](C(=O)OC)C2)CC(c2cc(Cl)cc(OC(F)(F)F)c2)=NO1 [I-471] | 80 to 100% | 80 to 100% |  |  | A (A indicates that the inhibition rate was greater than or equal to 80% to 100%) | A (A indicates that the inhibition rate was greater than or equal to 80% to 100%) | 
C=C[C@]1(C(=O)N[C@H]2C=C[C@@H](C(=O)OC3CCC3)C2)CC(c2cc(Cl)cc(C(F)(F)F)c2)=NO1 [I-478] | 80 to 100% | 80 to 100% |  |  | A (A indicates that the inhibition rate was greater than or equal to 80% to 100%) | A (A indicates that the inhibition rate was greater than or equal to 80% to 100%) | Herbicidal activity (inhibition rate class), Alopecurus japonicus (Alopecurus japonicus; Dosage 120 g a.i./ha): A (A indicates that the inhibition rate was greater than or equal to 80% to 100%); Herbicidal activity (inhibition rate class), Alopecurus myosuroides (Alopecurus myosuroides; Dosage 120 g a.i./ha): A (A indicates that the inhibition rate was greater than or equal to 80% to 100%); Herbicidal activity (inhibition rate class), Lolium multiflorum (Lolium multiflorum; Dosage 120 g a.i./ha): B (B indicates that the inhibition rate was greater than or equal to 60% to less than 80%)
C=C[C@]1(C(=O)N[C@H]2C=C[C@@H](C(=O)OC(C)C)C2)CC(c2cc(Cl)cc(C(F)(F)F)c2)=NO1 [I-483] | 80 to 100% | 80 to 100% |  |  | A (A indicates that the inhibition rate was greater than or equal to 80% to 100%) | A (A indicates that the inhibition rate was greater than or equal to 80% to 100%) | 
CSCCOC(=O)[C@@H]1C=C[C@H](NC(=O)C2(C)CC(c3cc(F)cc(C(F)(F)F)c3)=NO2)C1 (stereo partly shown) [I-497] |  |  |  |  |  |  | inhibition at 120 g/ha (Aegilops tauschii): 80 to 100%; Herbicidal activity (inhibition rate class), Alopecurus japonicus (Alopecurus japonicus; Dosage 240 g a.i./ha): A (A indicates that the inhibition rate was greater than or equal to 80% to 100%); Herbicidal activity (inhibition rate class), Alopecurus myosuroides (Alopecurus myosuroides; Dosage 240 g a.i./ha): A (A indicates that the inhibition rate was greater than or equal to 80% to 100%); inhibition at 120 g/ha (Cyperus iria): 80 to 100%; Herbicidal activity (inhibition rate class), Eleusine indica (Eleusine indica; Dosage 240 g a.i./ha): A (A indicates that the inhibition rate was greater than or equal to 80% to 100%); Herbicidal activity (inhibition rate class), Leptochloa chinensis (Leptochloa chinensis; Dosage 240 g a.i./ha): A (A indicates that the inhibition rate was greater than or equal to 80% to 100%); Herbicidal activity (inhibition rate class), Lolium multiflorum (Lolium multiflorum; Dosage 240 g a.i./ha): A (A indicates that the inhibition rate was greater than or equal to 80% to 100%)
C#CC(CC)OC(=O)[C@@H]1C=C[C@H](NC(=O)[C@@]2(C)CC(c3cc(Cl)cc(C(F)(F)F)c3)=NO2)C1 (stereo partly shown) [I-514] | 80 to 100% | 80 to 100% |  |  | A (A indicates that the inhibition rate was greater than or equal to 80% to 100%) | A (A indicates that the inhibition rate was greater than or equal to 80% to 100%) | Herbicidal activity (inhibition rate class), Alopecurus japonicus (Alopecurus japonicus; Dosage 120 g a.i./ha): A (A indicates that the inhibition rate was greater than or equal to 80% to 100%); Herbicidal activity (inhibition rate class), Alopecurus myosuroides (Alopecurus myosuroides; Dosage 120 g a.i./ha): A (A indicates that the inhibition rate was greater than or equal to 80% to 100%); Herbicidal activity (inhibition rate class), Lolium multiflorum (Lolium multiflorum; Dosage 120 g a.i./ha): A (A indicates that the inhibition rate was greater than or equal to 80% to 100%)
COC(=O)[C@@H]1C=C[C@H](NC(=O)[C@@]2(C(F)F)CC(c3cc(F)cc(C(F)(F)F)c3)=NO2)C1 [I-532] | 80 to 100% | 80 to 100% |  |  | A (A indicates that the inhibition rate was greater than or equal to 80% to 100%) | A (A indicates that the inhibition rate was greater than or equal to 80% to 100%) | 
